From ChEMBL document CHEMBL1201862, “PubChem BioAssay data set” (2004)
Calls of active or inactive are those of the source.

Experiments:
cells = assay type: functional, cell-based
[1] = biological target: T1, Nuclear receptor subfamily 0 group B member 1 (Homo sapiens, UniProt P51843); assay type: functional, cell-based;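 also: HEK293T cells transfected with SF-1 and DAX-1 plus StAR promoter luciferase reporter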
T1 sequence (P51843 whole entry): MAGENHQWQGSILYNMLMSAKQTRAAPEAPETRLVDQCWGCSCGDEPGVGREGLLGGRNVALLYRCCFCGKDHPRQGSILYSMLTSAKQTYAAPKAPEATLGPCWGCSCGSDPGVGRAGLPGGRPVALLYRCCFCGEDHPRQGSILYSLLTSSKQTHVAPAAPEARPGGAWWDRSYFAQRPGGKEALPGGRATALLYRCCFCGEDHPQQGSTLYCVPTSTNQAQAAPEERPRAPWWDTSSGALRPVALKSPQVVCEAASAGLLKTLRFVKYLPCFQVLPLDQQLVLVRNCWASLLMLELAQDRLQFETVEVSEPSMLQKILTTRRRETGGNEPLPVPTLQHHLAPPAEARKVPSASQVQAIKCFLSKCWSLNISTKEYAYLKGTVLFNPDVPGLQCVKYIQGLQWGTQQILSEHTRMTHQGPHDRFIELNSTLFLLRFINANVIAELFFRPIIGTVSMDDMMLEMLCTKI

[2] = biological target: Photoreceptor-specific nuclear receptor (Homo sapiens, UniProt Q9Y5X4); assay type: functional, cell-based;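 also: CHO-S cells with Gal4-NCOR and VP16-NR2E3 two-hybrid luciferase reporter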
Sequence of Photoreceptor-specific nuclear receptor (Q9Y5X4 whole entry, the tested form may be a part): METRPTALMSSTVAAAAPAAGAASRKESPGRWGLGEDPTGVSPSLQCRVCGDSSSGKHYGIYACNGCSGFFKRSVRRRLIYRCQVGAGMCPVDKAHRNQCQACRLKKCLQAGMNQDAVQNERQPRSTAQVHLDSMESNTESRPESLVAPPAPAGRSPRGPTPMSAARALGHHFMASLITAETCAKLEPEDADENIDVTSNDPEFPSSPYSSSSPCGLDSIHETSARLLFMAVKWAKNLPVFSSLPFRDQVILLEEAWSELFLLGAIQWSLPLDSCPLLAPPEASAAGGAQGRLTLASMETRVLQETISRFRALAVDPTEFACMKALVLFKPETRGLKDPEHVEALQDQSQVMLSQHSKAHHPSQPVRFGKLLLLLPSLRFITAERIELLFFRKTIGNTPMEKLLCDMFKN

Vero = assay: viability loss in Vero cells – cell-based, plate reader, cherry-pick samples, cytotoxicity control, dose response (AID 687020); assay type: functional; conditions: Chlorocebus sabaeus
[3] = biological target: Potassium voltage-gated channel subfamily KQT member 2 (Rattus norvegicus, UniProt O88943); assay: blockers of KCNQ2 channel current – cell-based, automated electrophysiology, set II, rat KCNQ2, dose response (AID 588637); assay type: functional
Sequence of Potassium voltage-gated channel subfamily KQT member 2 (O88943 whole entry, the tested form may be a part): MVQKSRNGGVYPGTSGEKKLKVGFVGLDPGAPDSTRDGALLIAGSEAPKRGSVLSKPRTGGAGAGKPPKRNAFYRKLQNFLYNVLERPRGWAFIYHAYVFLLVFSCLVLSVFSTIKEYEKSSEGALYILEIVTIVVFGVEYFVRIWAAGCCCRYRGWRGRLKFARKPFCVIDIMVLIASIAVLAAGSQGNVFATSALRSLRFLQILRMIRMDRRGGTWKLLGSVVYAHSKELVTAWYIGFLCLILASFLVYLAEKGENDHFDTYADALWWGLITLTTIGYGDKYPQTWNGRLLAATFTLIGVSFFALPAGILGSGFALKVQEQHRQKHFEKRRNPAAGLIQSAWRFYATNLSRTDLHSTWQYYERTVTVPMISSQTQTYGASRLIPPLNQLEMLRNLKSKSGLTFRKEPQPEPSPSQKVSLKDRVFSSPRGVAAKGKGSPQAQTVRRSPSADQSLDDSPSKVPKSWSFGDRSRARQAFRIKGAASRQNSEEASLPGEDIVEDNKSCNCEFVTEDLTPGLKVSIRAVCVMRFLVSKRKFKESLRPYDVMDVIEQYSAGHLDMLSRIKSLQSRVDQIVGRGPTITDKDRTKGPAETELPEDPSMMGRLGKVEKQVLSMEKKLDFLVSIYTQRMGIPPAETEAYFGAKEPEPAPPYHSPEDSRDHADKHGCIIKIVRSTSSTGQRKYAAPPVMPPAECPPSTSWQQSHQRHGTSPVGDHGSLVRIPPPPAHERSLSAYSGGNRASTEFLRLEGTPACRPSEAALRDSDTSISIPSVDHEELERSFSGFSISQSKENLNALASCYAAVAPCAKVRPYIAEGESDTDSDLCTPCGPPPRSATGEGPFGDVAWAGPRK

[4] = biological target: Hepatocyte nuclear factor 4-alpha (Homo sapiens, UniProt P41235); assay type: functional, cell-based;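 also: biochemical luminescence-based dose-response counterscreen measuring inhibition of HNF4 dimerization, run alongside a screen for blockers of ABHD5–perilipin-5 interaction; split luciferase complementation of HNF4 fusion proteins in cell lysate measuring dimerization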
Sequence of Hepatocyte nuclear factor 4-alpha (P41235 whole entry, the tested form may be a part): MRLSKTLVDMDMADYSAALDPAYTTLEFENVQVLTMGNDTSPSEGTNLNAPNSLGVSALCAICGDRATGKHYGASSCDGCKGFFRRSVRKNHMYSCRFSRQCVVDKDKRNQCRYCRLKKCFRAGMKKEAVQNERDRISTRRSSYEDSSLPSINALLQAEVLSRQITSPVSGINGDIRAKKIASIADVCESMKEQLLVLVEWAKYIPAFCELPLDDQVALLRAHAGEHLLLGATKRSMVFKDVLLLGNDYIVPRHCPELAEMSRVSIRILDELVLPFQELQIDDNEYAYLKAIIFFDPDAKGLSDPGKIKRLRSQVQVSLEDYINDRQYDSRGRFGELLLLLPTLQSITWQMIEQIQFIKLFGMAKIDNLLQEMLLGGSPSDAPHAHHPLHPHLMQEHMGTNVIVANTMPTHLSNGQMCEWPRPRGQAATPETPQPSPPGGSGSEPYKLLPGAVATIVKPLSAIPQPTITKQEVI

Beta-lactamase [5] = biological target: Beta-lactamase (Salmonella choleraesuis (strain SC-B67), UniProt Q5J463); assay: Epi-absorbance-based counterscreen for selective VIM-2 inhibitors: dose response biochemical high throughput screening assay to identify inhibitors of TEM-1 serine-beta-lactamase.
Sequence of Beta-lactamase (Salmonella choleraesuis (strain SC-B67), UniProt Q5J463) (Q5J463 whole entry): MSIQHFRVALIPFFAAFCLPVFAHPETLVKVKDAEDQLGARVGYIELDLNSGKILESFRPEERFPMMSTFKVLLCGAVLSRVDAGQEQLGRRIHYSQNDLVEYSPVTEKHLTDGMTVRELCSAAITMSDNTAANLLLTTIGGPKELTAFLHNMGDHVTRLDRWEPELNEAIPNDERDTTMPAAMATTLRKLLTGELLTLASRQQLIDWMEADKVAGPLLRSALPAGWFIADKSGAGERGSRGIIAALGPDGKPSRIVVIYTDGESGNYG

Beta-lactamase [6] = biological target: T2, Beta-lactamase (Pseudomonas aeruginosa, UniProt Q79MP6); assay: inhibition of IMP-1 beta-lactamase activity – biochemical, epi-absorbance, selectivity assay for VIM-2 inhibitor project, dose response (AID 1920)
T2 sequence (Q79MP6 whole entry): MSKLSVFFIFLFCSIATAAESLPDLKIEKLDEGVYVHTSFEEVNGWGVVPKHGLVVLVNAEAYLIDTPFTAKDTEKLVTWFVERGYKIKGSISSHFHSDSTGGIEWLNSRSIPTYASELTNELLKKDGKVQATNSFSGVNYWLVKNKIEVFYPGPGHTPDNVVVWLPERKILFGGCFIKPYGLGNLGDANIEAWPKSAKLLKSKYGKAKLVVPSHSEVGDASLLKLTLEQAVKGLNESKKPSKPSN

Beta Lactamase [7] = biological target: T3, Beta Lactamase (Pseudomonas aeruginosa, UniProt Q932Y6); assay: concentration-dependent VIM-2 enzyme inhibition – biochemical, epi-absorbance readout, selective inhibitors, dose response (AID 1919)
T3 sequence (Q932Y6 whole entry): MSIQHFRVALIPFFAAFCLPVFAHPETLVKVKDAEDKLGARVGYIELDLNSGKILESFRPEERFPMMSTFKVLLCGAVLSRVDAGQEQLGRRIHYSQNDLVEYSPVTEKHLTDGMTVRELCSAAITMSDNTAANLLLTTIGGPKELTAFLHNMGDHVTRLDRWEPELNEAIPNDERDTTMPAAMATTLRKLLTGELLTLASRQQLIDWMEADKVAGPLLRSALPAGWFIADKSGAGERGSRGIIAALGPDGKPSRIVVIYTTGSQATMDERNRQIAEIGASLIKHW

Beta-lactamase [8] = biological target: T2, Beta-lactamase; assay: […] counterscreen for selective VIM-2 inhibitors: dose response biochemical high throughput screening assay to identify inhibitors of IMP-1 metallo-beta-lactamase.
Beta Lactamase [9] = biological target: T3, Beta Lactamase; assay: VIM-2 CCF2 hydrolysis inhibition, assay artifact filter – biochemical, FRET readout, CCF2 substrate, artefact control for selective VIM-2 inhibitor project, dose response (AID 1926)
[10] = biological target: DNA dC->dU-editing enzyme APOBEC-3A (Homo sapiens, UniProt P31941); assay: A3A deaminase inhibition for selectivity – biochemical, dose response (AID 504722); assay type: functional
Sequence of DNA dC->dU-editing enzyme APOBEC-3A (P31941 whole entry): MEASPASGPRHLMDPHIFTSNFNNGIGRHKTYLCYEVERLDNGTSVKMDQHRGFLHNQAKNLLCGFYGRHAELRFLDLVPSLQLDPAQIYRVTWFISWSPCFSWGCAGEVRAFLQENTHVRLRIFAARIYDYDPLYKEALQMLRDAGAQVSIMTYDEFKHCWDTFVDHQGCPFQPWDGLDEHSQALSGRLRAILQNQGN

[11] = biological target: DNA dC->dU-editing enzyme APOBEC-3G (Homo sapiens, UniProt Q9HC16); assay: Dose Response confirmation of small molecule APOBEC3G DNA Deaminase Inhibitors via a fluorescence-based single-stranded DNA deaminase assay. [Related pubchem assays (depositor defined):AID493012, AID493028]; assay type: functional
Sequence of DNA dC->dU-editing enzyme APOBEC-3G (Q9HC16 whole entry): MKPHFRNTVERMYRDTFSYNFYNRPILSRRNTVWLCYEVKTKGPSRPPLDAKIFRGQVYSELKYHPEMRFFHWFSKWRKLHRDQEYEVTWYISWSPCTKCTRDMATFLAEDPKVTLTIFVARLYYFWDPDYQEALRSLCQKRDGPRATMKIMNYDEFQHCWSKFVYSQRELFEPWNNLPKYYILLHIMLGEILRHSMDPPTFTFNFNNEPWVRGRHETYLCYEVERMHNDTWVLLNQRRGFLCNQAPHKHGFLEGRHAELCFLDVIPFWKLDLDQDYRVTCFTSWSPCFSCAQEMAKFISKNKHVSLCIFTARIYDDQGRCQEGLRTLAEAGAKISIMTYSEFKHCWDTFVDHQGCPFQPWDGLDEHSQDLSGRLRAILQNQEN

HEK293 = assay: EBV LMP1 TES2 canonical NF-kB signalling blockers – cell-based, HEK293, luciferase, cherry-pick, dose response (AID 588343); assay type: functional; conditions: Homo sapiens

COc1ccccc1NS(=O)(=O)c1cc(NC(=O)c2ccc(NC(C)=O)cc2)ccc1N1CCOCC1
IC50 (cells): > 67.5 µM (inactive) | IC50 [1]: > 67.5 µM (inactive)

CCOC(=O)N1CCN(C(=O)c2ccc(S(=O)(=O)Nc3ccc(C)cc3)cc2)CC1
IC50 [2]: 5.96 µM (active)

COc1ccc(C)cc1N(CC(=O)Nc1ccc(S(=O)(=O)N2CCOCC2)cc1)S(C)(=O)=O
AC50 (Vero): 29.5 µM (active)

CCc1nc2ccc(F)cc2c(C(=O)NC2CCCCC2C)c1C (centres undefined)
IC50 [3]: 636 nM (active)

CC(C)(C)NC(=O)C(c1ccc(-c2ccccc2)cc1)n1c(=O)c(-c2ccco2)nc2ccccc21 (centres undefined)
IC50 [4]: 1.91 µM (active)

CC(=C/c1ccccc1)/C=N/n1c(S)nnc1-c1ccncc1
IC50 (Beta-lactamase [5]): > 59.6 µM (inactive) | IC50 (Beta-lactamase [6]): > 59.6 µM (inactive) | IC50 (Beta Lactamase [7]): > 59.6 µM (inactive) | IC50 (Beta-lactamase [8]): > 59.6 µM (inactive) | IC50 (Beta Lactamase [9]): 3.26 µM (active) | IC50 [10]: > 100 µM (inactive) | IC50 [11]: 2.33 µM (active) | AC50 (HEK293): 5.9 µM (active)
